Data published in ChEMBL document CHEMBL1201862, “PubChem BioAssay data set” (2004).
Blank lines part the entries; values can stand above or below the molecule they belong to. Active and inactive are the calls of the source.

What was measured:
[1] = molecular target: Serine/threonine-protein kinase PLK3 (Homo sapiens, UniProt Q9H4B4); type: functional
[2] = molecular target: Serine/threonine-protein kinase Chk2 (Homo sapiens, UniProt O96017); type: functional;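 note: CHEK2 entry within a kinome-wide screening panel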
[3] = molecular target: Calcium/calmodulin-dependent protein kinase type 1 (Homo sapiens, UniProt Q14012); type: functional
[4] = molecular target: Death-associated protein kinase 3 (Homo sapiens, UniProt O43293); type: functional;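 note: measured as one member of a kinome-wide profiling panel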
[5] = molecular target: Mitogen-activated protein kinase 12 (Homo sapiens, UniProt P53778); type: functional;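 note: measured as one member of a kinome-wide kinase profiling panel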
[6] = molecular target: Mitogen-activated protein kinase 8 (Homo sapiens, UniProt P45983); type: functional;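 note: value comes from one member of a kinome-wide kinase profiling panel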
[7] = molecular target: Dual specificity tyrosine-phosphorylation-regulated kinase 1A (Homo sapiens, UniProt Q13627); type: functional;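 note: measured against DYRK1A as one member of a broad kinome profiling panel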
[8] = molecular target: BDNF/NT-3 growth factors receptor (Homo sapiens, UniProt Q16620); type: functional;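 note: NTRK2 measured as one member of a broad kinome-wide kinase profiling panel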
[9] = molecular target: Casein kinase I isoform delta (Homo sapiens, UniProt P48730); type: functional;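 note: measured as one member (CSNK1D) of a kinome panel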
[10] = molecular target: Cyclin-dependent kinase 5 (Homo sapiens, UniProt Q00535); type: functional;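 note: CDK5 measured as one member of a kinase profiling panel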
[11] = molecular target: Cyclin-dependent kinase 1 (Homo sapiens, UniProt P06493); type: functional;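 note: Kinome-wide panel profiling, with the target listed as panel member CDC2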
[12] = molecular target: 3-phosphoinositide-dependent protein kinase 1 (Homo sapiens, UniProt O15530); type: functional;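 note: value comes from the Navigating the Kinome panel, PDPK1 member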
[13] = molecular target: Proto-oncogene tyrosine-protein kinase Src (Homo sapiens, UniProt P12931); type: functional;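 note: SRC entry within a kinome-wide kinase profiling panel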
[14] = molecular target: Serine/threonine-protein kinase 3 (Homo sapiens, UniProt Q13188); type: functional;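 note: measured as one member of a kinome-wide kinase panel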
[15] = molecular target: Serine/threonine-protein kinase Nek2 (Homo sapiens, UniProt P51955); type: functional
[16] = molecular target: Protein kinase C gamma type (Homo sapiens, UniProt P05129); type: functional
[17] = molecular target: Serine/threonine-protein kinase pim-1 (Homo sapiens, UniProt P11309); type: functional
[18] = molecular target: Serine/threonine-protein kinase Chk1 (Homo sapiens, UniProt O14757); type: functional;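 note: measured as one member of a kinome-wide kinase profiling panel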
[19] = molecular target: Ribosomal protein S6 kinase alpha-3 (Homo sapiens, UniProt P51812); type: functional;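 note: measured within a kinome-wide profiling panel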
[20] = molecular target: Mitogen-activated protein kinase 1 (Homo sapiens, UniProt P28482); type: functional
Aurora kinase A = Aurora kinase A (Homo sapiens, UniProt O14965); type: functional;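 note: value from the Navigating the Kinome kinase panel profiling, panel entry STK6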
[21] = molecular target: RAC-gamma serine/threonine-protein kinase (Homo sapiens, UniProt Q9Y243); type: functional
[22] = molecular target: MAP kinase-activated protein kinase 2 (Homo sapiens, UniProt P49137); type: functional;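 note: measured as one member of a kinome-wide kinase panel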
Insulin receptor = Insulin receptor (Homo sapiens, UniProt P06213); type: functional;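 note: insulin receptor kinase tested as one member of a kinome-wide kinase panel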
[23] = molecular target: Inhibitor of nuclear factor kappa-B kinase subunit alpha (Homo sapiens, UniProt O15111); type: functional
[24] = molecular target: Tyrosine-protein kinase JAK2 (Homo sapiens, UniProt O60674); type: functional;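 note: JAK2 tested as one member of a kinase panel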
[25] = molecular target: Glycogen synthase kinase-3 alpha (Homo sapiens, UniProt P49840); type: functional;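 note: GSK3A result taken from a broad kinome-wide kinase panel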
[26] = molecular target: Serine/threonine-protein kinase PAK 4 (Homo sapiens, UniProt O96013); type: functional;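 note: value obtained within a kinome profiling panel in which PAK4 was one of the panel members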
[27] = molecular target: MAP/microtubule affinity-regulating kinase 3 (Homo sapiens, UniProt P27448); type: functional;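 note: MARK3 affinity measured as one member of a kinome panel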
[28] = molecular target: Mitogen-activated protein kinase 9 (Homo sapiens, UniProt P45984); type: functional;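 note: value from a kinome panel profiling assay, MAPK9 panel entry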
LIM domain kinase 1 = LIM domain kinase 1 (Homo sapiens, UniProt P53667); experiment: Navigating the Kinome. Panel member name: LIMK1; type: functional
[29] = molecular target: Inhibitor of nuclear factor kappa-B kinase subunit beta (Homo sapiens, UniProt O14920); type: functional
[30] = molecular target: Fibroblast growth factor receptor 1 (Homo sapiens, UniProt P11362); type: functional
[31] = molecular target: Protein kinase C zeta type (Homo sapiens, UniProt Q05513); type: functional;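 note: measured as one member of a broad kinase profiling panel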
[32] = molecular target: Tyrosine-protein kinase Blk (Homo sapiens, UniProt P51451); type: functional;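 note: obtained as one member of a kinome-wide kinase assay panel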
[33] = molecular target: MAP kinase-activated protein kinase 3 (Homo sapiens, UniProt Q16644); type: functional;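 note: value comes from a kinome-wide profiling panel in which MAPKAPK3 is one of the panel members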
[34] = molecular target: cAMP-dependent protein kinase catalytic subunit alpha (Homo sapiens, UniProt P17612); type: functional
[35] = molecular target: Casein kinase II subunit alpha (Homo sapiens, UniProt P68400); type: functional
[36] = molecular target: Serine/threonine-protein kinase PLK4 (Homo sapiens, UniProt O00444); type: functional;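 note: PLK4 measured as one member of a kinome-wide kinase profiling panel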
[37] = molecular target: Tyrosine-protein kinase JAK3 (Homo sapiens, UniProt P52333); type: functional
[38] = molecular target: Vascular endothelial growth factor receptor 3 (Homo sapiens, UniProt P35916); type: functional;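 note: value from a kinome-wide profiling panel, with FLT4 as the panel member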
Aurora kinase B = Aurora kinase B (Homo sapiens, UniProt Q96GD4); type: functional
[39] = molecular target: Serine/threonine-protein kinase PLK1 (Homo sapiens, UniProt P53350); type: functional;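 note: PLK1 measured as one member of a kinome-wide profiling panel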
[40] = molecular target: Glycogen synthase kinase-3 beta (Homo sapiens, UniProt P49841); type: functional;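 note: value comes from a broad kinome profiling panel, with GSK3B as the panel member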
[41] = molecular target: Vascular endothelial growth factor receptor 2 (Homo sapiens, UniProt P35968); type: functional
[42] = molecular target: Interleukin-1 receptor-associated kinase 4 (Homo sapiens, UniProt Q9NWZ3); type: functional
[43] = molecular target: Protein kinase C delta type (Homo sapiens, UniProt Q05655); type: functional
[44] = molecular target: Serine/threonine-protein kinase PAK 1 (Homo sapiens, UniProt Q13153); type: functional
[45] = molecular target: Ribosomal protein S6 kinase beta-1 (Homo sapiens, UniProt P23443); type: functional;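 note: measured as one member of a kinome-wide profiling panel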
[46] = molecular target: Rho-associated protein kinase 1 (Homo sapiens, UniProt Q13464); type: functional;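 note: measured within a broad kinome-wide panel profiling many kinases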
[47] = molecular target: Receptor tyrosine-protein kinase erbB-4 (Homo sapiens, UniProt Q15303); type: functional;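 note: ERBB4 member of a kinome-wide kinase profiling panel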
[48] = molecular target: Serine/threonine-protein kinase MRCK alpha (Homo sapiens, UniProt Q5VT25); type: functional
[49] = molecular target: RAC-alpha serine/threonine-protein kinase (Homo sapiens, UniProt P31749); type: functional;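 note: AKT1 affinity measured as one member of a kinome-wide kinase profiling panel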
[50] = molecular target: 5'-AMP-activated protein kinase catalytic subunit alpha-1 (Homo sapiens, UniProt Q13131); type: functional
[51] = molecular target: Neuropeptides B/W receptor type 1 (Homo sapiens, UniProt P48145); experiment: GPR7 antagonist potency, late-stage follow-up, cell-based, fluorescence, dose response, set 6 (AID 588583); type: functional
[52] = molecular target: Melanin-concentrating hormone receptor 1 (Homo sapiens, UniProt Q99705); experiment: Late-stage fluorescence-based counterscreen for antagonists of the G-protein coupled receptor 7 (GPR7): cell-based dose response assay to identify antagonists of the melanin-concentrating hormone receptor 1 (MCHR1) Set 6.; type: functional
[53] = cytotoxicity toward NIH3T3 fibroblasts, dose response, counter-screen, cell-based, ATP luminescence, mouse fibroblasts (AID 2010); type: functional;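 note: cells exposed to compound for about 90 hours before reading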
[54] = molecular target: T1, High affinity choline transporter 1 (Homo sapiens, UniProt Q9GZV3); experiment: CHT inhibitors, dose response, cell-based, 5-point CRC, membrane potential dye (AID 504840); type: functional
T1 sequence (Q9GZV3 whole entry): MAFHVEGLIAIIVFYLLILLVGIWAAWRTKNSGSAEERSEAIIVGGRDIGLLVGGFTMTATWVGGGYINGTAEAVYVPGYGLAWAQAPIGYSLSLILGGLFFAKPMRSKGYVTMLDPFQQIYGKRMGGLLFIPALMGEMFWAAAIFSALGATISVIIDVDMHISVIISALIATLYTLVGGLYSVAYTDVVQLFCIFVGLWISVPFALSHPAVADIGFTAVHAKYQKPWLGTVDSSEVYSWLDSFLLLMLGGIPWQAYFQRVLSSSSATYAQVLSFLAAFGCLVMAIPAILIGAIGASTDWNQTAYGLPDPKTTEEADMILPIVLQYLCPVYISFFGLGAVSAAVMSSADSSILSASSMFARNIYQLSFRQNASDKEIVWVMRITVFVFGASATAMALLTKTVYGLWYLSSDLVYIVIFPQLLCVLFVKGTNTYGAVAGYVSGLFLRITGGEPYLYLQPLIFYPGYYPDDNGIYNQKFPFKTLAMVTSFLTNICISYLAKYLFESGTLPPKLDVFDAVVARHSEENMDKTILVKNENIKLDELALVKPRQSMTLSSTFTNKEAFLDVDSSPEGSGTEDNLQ

[55] = inhibitors of intracellular T. cruzi replication, confirmation, NIH3T3 host cells, beta-gal luminescence (AID 2044); type: functional, cell-based;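 note: intracellular parasites grown in NIH/3T3 mouse fibroblasts as host cells; luminescent beta-galactosidase reporter signal from transgenic T. cruzi replicating inside host cells; inhibitors lower the luminescence signal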
[56] = molecular target: T1, High affinity choline transporter 1; experiment: CHT inhibitors, dose response, cell-based, 10-point CRC, membrane potential dye (AID 588401); type: functional;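 note: membrane potential dye fluorescence of choline-evoked depolarization via CHT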

Sequence of Proto-oncogene tyrosine-protein kinase Src (P12931 2-536 limits assumed): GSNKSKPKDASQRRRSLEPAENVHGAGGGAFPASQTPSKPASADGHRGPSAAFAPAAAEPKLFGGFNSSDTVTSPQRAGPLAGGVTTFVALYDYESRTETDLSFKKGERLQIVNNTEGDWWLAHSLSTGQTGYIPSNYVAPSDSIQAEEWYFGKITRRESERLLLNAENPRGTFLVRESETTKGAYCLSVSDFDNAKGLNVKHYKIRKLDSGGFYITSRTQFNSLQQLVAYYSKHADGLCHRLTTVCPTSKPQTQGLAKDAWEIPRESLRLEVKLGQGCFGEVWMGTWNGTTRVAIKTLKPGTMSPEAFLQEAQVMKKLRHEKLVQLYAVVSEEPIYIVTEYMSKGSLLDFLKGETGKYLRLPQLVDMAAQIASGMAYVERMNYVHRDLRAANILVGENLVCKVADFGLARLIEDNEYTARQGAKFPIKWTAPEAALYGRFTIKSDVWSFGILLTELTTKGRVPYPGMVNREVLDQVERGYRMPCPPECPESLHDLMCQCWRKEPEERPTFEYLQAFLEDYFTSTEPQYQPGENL
Sequence of Aurora kinase B (Q96GD4 whole entry): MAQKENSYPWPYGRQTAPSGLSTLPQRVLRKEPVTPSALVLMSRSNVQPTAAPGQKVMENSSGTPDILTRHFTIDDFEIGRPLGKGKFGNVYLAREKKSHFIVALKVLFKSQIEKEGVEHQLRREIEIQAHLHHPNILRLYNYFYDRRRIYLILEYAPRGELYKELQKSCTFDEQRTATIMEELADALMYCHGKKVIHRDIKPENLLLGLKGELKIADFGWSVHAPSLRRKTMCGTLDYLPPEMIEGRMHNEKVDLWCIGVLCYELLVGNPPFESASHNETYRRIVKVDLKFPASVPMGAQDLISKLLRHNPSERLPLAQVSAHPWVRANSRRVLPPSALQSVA
Sequence of Serine/threonine-protein kinase pim-1 (P11309 whole entry): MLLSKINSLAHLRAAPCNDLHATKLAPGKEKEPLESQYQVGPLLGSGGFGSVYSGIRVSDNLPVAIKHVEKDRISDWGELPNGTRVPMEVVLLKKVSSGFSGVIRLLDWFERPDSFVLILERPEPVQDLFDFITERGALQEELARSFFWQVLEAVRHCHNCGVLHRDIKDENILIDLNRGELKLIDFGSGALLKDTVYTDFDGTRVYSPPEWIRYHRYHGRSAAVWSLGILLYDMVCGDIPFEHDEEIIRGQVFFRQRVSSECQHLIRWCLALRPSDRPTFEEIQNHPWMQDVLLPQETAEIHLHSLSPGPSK
Sequence of Glycogen synthase kinase-3 alpha (P49840 whole entry): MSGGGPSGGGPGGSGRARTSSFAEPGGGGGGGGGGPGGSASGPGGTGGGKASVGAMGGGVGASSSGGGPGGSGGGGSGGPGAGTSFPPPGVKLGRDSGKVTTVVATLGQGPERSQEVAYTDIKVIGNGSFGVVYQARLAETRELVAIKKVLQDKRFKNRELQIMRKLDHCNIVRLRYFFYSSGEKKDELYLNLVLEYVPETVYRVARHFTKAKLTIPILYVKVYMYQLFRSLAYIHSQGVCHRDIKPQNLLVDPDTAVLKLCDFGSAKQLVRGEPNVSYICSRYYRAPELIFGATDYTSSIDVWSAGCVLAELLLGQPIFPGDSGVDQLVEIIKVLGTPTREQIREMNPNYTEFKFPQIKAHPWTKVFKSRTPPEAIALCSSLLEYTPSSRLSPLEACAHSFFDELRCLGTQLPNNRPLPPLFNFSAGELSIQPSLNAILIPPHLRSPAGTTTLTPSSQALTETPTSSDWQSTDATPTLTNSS
Sequence of Casein kinase II subunit alpha (P68400 whole entry): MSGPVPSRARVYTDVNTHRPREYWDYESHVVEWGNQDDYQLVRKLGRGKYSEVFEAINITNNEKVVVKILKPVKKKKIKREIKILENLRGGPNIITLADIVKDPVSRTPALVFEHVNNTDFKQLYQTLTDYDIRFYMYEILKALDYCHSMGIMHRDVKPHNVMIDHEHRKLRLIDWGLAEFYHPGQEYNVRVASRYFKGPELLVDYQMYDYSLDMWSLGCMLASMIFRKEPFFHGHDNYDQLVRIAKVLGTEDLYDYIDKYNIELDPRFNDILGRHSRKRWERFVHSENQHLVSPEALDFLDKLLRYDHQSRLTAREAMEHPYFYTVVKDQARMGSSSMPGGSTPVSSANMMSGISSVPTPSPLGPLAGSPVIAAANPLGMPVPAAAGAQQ
Sequence of Vascular endothelial growth factor receptor 2 (P35968 whole entry): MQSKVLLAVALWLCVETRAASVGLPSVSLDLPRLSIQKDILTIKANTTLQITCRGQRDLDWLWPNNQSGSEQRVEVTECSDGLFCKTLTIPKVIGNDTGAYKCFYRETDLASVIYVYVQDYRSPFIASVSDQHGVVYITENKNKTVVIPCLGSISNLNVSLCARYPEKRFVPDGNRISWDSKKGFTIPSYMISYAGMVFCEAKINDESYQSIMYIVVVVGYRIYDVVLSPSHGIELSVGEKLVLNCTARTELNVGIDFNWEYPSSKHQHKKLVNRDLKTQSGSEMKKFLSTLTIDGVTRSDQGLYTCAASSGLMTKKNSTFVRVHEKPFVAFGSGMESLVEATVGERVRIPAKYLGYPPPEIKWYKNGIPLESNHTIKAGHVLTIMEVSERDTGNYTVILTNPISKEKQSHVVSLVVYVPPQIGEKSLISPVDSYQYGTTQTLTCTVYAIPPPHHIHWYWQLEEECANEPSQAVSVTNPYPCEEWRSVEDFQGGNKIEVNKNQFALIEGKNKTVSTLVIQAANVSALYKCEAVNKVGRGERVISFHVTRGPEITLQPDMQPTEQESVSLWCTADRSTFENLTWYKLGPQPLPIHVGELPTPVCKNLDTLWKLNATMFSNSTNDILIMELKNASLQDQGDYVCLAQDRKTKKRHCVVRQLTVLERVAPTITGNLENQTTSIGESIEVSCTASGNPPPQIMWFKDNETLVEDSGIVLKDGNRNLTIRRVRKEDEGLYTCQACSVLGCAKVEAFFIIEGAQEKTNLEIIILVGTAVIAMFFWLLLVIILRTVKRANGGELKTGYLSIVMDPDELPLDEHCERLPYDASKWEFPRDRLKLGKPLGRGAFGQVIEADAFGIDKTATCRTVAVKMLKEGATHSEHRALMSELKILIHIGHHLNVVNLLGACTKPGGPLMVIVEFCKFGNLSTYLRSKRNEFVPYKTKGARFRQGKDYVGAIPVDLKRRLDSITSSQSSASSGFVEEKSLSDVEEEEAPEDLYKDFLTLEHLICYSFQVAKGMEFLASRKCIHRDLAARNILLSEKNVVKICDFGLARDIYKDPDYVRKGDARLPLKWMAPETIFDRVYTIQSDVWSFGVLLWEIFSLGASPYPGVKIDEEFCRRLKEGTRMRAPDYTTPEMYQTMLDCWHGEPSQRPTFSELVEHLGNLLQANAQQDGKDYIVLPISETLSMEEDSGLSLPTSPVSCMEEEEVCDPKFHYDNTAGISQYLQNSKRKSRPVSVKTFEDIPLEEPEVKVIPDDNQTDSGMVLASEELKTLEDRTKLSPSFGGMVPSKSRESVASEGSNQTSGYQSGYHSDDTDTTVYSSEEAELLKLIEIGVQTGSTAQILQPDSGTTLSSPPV
Sequence of Serine/threonine-protein kinase Chk1 (O14757 whole entry): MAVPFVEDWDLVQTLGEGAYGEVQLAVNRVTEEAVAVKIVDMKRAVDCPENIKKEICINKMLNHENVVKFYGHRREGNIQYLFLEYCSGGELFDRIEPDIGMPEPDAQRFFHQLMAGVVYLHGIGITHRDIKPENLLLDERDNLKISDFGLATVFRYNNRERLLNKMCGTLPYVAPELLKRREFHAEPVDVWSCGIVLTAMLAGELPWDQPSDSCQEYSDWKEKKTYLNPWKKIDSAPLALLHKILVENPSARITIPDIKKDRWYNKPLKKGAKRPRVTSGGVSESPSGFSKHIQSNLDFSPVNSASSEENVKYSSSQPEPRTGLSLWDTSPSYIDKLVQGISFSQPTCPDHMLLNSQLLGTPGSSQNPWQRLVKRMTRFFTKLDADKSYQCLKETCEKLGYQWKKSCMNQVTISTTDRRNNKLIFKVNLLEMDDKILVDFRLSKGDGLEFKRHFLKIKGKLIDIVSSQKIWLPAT
Sequence of Tyrosine-protein kinase Blk (P51451 whole entry): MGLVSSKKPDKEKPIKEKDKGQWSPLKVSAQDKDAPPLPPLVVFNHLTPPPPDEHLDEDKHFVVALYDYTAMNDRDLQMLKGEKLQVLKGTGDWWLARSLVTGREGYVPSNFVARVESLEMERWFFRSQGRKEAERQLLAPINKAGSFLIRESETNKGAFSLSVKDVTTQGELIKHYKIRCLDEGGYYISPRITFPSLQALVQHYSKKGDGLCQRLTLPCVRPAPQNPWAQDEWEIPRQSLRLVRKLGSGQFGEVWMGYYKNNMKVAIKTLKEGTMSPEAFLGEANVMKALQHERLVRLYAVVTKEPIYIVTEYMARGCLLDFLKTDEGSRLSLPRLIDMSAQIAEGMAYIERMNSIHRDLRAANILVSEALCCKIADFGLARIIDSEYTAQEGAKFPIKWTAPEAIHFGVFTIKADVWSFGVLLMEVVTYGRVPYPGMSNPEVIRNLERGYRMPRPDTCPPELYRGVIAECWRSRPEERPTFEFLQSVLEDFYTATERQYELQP
Sequence of Serine/threonine-protein kinase Nek2 (P51955 whole entry): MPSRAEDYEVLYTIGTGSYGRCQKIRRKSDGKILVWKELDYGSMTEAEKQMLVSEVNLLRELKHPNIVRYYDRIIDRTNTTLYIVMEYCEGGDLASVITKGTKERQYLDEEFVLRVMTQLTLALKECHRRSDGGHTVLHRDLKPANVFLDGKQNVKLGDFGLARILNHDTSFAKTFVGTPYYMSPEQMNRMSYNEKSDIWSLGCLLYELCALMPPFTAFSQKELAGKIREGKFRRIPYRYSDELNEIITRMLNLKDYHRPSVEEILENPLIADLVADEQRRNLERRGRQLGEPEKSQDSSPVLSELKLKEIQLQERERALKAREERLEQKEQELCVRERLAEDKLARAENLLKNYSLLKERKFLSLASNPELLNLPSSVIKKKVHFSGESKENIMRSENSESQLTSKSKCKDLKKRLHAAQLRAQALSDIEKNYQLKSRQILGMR

Ki [1]: > 7.94 µM (inactive) | Ki [2]: > 10 µM (inactive) | Ki [3]: 3.98 µM (active) | Ki [5]: > 6.31 µM (inactive) | Ki [6]: > 3.16 µM (inactive) | Ki [7]: > 6.31 µM (inactive) | Ki [8]: 2 µM (active) | Ki [9]: > 7.94 µM (inactive) | Ki [10]: > 10 µM (inactive) | Ki [11]: 3.98 µM (active) | Ki [12]: > 3.98 µM (inactive) | Ki [13]: > 5.01 µM (inactive) | Ki [14]: 3.98 µM (active) | Ki [15]: > 10 µM (inactive) | Ki [16]: 2.51 µM (active) | Ki [17]: 1.26 µM (active) | Ki [18]: > 7.94 µM (inactive) | Ki [19]: 3.98 µM (active) | Ki [20]: > 7.94 µM (inactive) | Ki (Aurora kinase A): > 6.31 µM (inactive) | Ki [21]: > 10 µM (inactive) | Ki [22]: 3.98 µM (active) | Ki (Insulin receptor): > 5.01 µM (inactive) | Ki [23]: 1.26 µM (active) | Ki [24]: 1 µM (active) | Ki [25]: > 7.94 µM (inactive) | Ki [26]: > 5.01 µM (inactive) | Ki [27]: > 6.31 µM (inactive) | Ki [28]: > 3.98 µM (inactive) | Ki (LIM domain kinase 1): 2 µM (active) | Ki [29]: > 3.16 µM (inactive) | Ki [30]: > 5.01 µM (inactive) | Ki [31]: 1.26 µM (active) | Ki [32]: 1 µM (active) | Ki [33]: 1.58 µM (active) | Ki [34]: > 7.94 µM (inactive) | Ki [35]: > 6.31 µM (inactive) | Ki [36]: > 3.98 µM (inactive) | Ki [37]: 0.794 µM (active) | Ki [38]: > 6.31 µM (inactive) | Ki (Aurora kinase B): > 6.31 µM (inactive) | Ki [39]: > 7.94 µM (inactive) | Ki [40]: > 6.31 µM (inactive) | Ki [41]: > 7.94 µM (inactive) | Ki [42]: 3.98 µM (active) | Ki [43]: 0.631 µM (active) | Ki [44]: 1.26 µM (active) | Ki [45]: 1.26 µM (active) | Ki [46]: 2.51 µM (active) | Ki [47]: 1.58 µM (active) | Ki [48]: 2.51 µM (active) | Ki [49]: 3.98 µM (active) | Ki [50]: > 10 µM (inactive)
SMILES: CCCCCCCCCCCCOc1ccc(NC(=N)N)cc1NC(=N)N [LAUROGUADINE]
Ki [4]: 0.316 µM (active)

IC50 [51]: 0.821 µM (active) | IC50 [52]: 0.821 µM (active)
SMILES: Cc1ccccc1C(C#N)c1c(Cl)cnn(Cc2cccc3ccccc23)c1=O (stereo not given)

SMILES: CCOCCCN(C)C1CCN(C(=O)c2oc3ccccc3c2NC(=O)c2ccc(F)cc2)CC1
EC50 [53]: > 60 µM (not active) | IC50 [54]: 6.85 µM (active) | EC50 [55]: 0.267 µM (active) | IC50 [56]: 6.69 µM (active)
